Experimental findings from PubChem BioAssay AID1259407 (Chemical Carcinogenesis Research Information System (CCRIS), 2018) are described below.

The test system of the data set is CCRIS mutagenicity, Ames/micronucleus/aberration tests. Description: CCRIS mutagenicity studies.
Setting [1] is: Test System: AMES SALMONELLA TYPHIMURIUM, Strain/Indicator: TA98, Metabolic Activation: NONE, Method: PREINCUBATION
Setting [2] is: Test System: AMES SALMONELLA TYPHIMURIUM, Strain/Indicator: TA98, Metabolic Activation: NONE, Method: STANDARD PLATE.
Where [3] appears, read: Test System: AMES SALMONELLA TYPHIMURIUM, Strain/Indicator: TA100, Metabolic Activation: NONE, Method: STANDARD PLATE.
Setting [4] is: Test System: AMES SALMONELLA TYPHIMURIUM, Strain/Indicator: TA1535, Metabolic Activation: NONE, Method: STANDARD PLATE.
The mark [5] stands for this setting: Test System: AMES SALMONELLA TYPHIMURIUM, Strain/Indicator: TA1538, Metabolic Activation: NONE, Method: STANDARD PLATE.
Setting [6] is: Test System: AMES SALMONELLA TYPHIMURIUM, Strain/Indicator: TA100, Metabolic Activation: NONE, Method: PREINCUBATION
[7] abbreviates: Test System: CHINESE HAMSTER V-79, Strain/Indicator: V-79/6-THIOGUANINE, Metabolic Activation: NONE, Method: STANDARD PLATE.

Calls of active or inactive are those of the source. No rule for the calls is given here.

In the case of `COc1cccc2c1C(=O)c1c(O)c3c(c(O)c1C2=O)C[C@@](O)(C(C)=O)C[C@@H]3O[C@H]1C[C@H](N)[C@H](O)[C@H](C)O1`, the mutagenic call (End Point: In vitro micronucleus, Test System: Human lymphoblastoid TK6 cells, Metabolic Activation: None) was “active; positive (p<0.001)”; the mutagenic call (Test System: AMES SALMONELLA TYPHIMURIUM, Strain/Indicator: GW257, Metabolic Activation: NONE, Method: STANDARD PLATE) is “active; positive”; the mutagenic call (Test System: AMES SALMONELLA TYPHIMURIUM, Strain/Indicator: TA97, Metabolic Activation: NONE, Method: STANDARD PLATE) was “inactive; negative”; the mutagenic call under setting [1] is “active; positive”; the mutagenic call under setting [2] was “active; positive”; the mutagenic call (Test System: AMES SALMONELLA TYPHIMURIUM, Strain/Indicator: TA98, Metabolic Activation: RAT, LIVER, S-9, AROCLOR 1254, Method: STANDARD PLATE) was “active; positive”. Also, the mutagenic call (Test System: AMES SALMONELLA TYPHIMURIUM, Strain/Indicator: TA98, Metabolic Activation: RAT, LIVER, S-9, KC500 OR PHENOBARBITAL, Method: LIQUID SUSPENSION) was “active; positive”; the mutagenic call under setting [3] was “active; positive”; the mutagenic call (Test System: AMES SALMONELLA TYPHIMURIUM, Strain/Indicator: TA100, Metabolic Activation: RAT, LIVER, S-9, KC500 OR PHENOBARBITAL, Method: LIQUID SUSPENSION) was “active; positive”; the mutagenic call (Test System: AMES SALMONELLA TYPHIMURIUM, Strain/Indicator: TA102, Metabolic Activation: NONE, Method: STANDARD PLATE) is “active; positive”; the mutagenic call (Test System: AMES SALMONELLA TYPHIMURIUM, Strain/Indicator: TA104, Metabolic Activation: NONE, Method: STANDARD PLATE) was “inactive; negative”; the mutagenic call under setting [4] is “inactive; negative”. The mutagenic call runs as follows: under setting [5], “active; positive”; (Test System: AMES SALMONELLA TYPHIMURIUM, Strain/Indicator: TA1978/PKM101, Metabolic Activation: NONE, Method: STANDARD PLATE) “active; positive”; (Test System: AMES SALMONELLA TYPHIMURIUM, Strain/Indicator: TA1978, Metabolic Activation: NONE, Method: STANDARD PLATE) “inactive; negative”; (Test System: AMES SALMONELLA TYPHIMURIUM, Strain/Indicator: TA2637, Metabolic Activation: NONE, Method: STANDARD PLATE) “active; positive”; (Test System: AMES SALMONELLA TYPHIMURIUM, Strain/Indicator: TA2638, Metabolic Activation: NONE, Method: STANDARD PLATE) “active; positive”; (Test System: CHINESE HAMSTER V-79, Strain/Indicator: V-79/6-THIOGUANINE, Metabolic Activation: NONE, Method: SUSPENSION/PLATE) “inactive; negative”. Further, the mutagenic call is “inactive; negative” (Test System: CHINESE HAMSTER V-79, Strain/Indicator: V-79/6-THIOGUANINE, Metabolic Activation: RAT, LIVER, HOMOGENATE, Method: SUSPENSION/PLATE); “active; positive” (Test System: CHINESE HAMSTER V-79, Strain/Indicator: V-79/8-AZAGUANINE, Metabolic Activation: NONE, Method: STANDARD PLATE); “inactive; negative” (Test System: E. COLI, Strain/Indicator: WP2 (HCR), Metabolic Activation: NONE, Method: STANDARD PLATE); “active; positive” (Test System: E. COLI, Strain/Indicator: WP2 (PKM101), Metabolic Activation: NONE, Method: STANDARD PLATE); “active; positive” (Test System: E. COLI, Strain/Indicator: WP2 UVRA (PKM101), Metabolic Activation: NONE, Method: STANDARD PLATE); “active; positive” (Test System: UDS RAT HEPATOCYTES, Strain/Indicator: THY INCORP, Metabolic Activation: NONE, Method: AUTOMATIC COLONY COUNTER).

With `COC1OC1(C)C` (stereo not drawn), the mutagenic call is, setting by setting: under setting [3], “active; positive”; under setting [4], “active; positive”.

With `CCCC/C=C/C=O`, the mutagenic call reads like this: under setting [6], “inactive; negative”; (Test System: AMES SALMONELLA TYPHIMURIUM, Strain/Indicator: TA100, Metabolic Activation: NONE, Method: PREINCUBATION (THREEFOLD CELL DENSITY)) “active; positive”; (Test System: AMES SALMONELLA TYPHIMURIUM, Strain/Indicator: TA100, Metabolic Activation: RAT, LIVER, S-9, AROCLOR 1254, Method: PREINCUBATION) “inactive; negative”; (Test System: AMES SALMONELLA TYPHIMURIUM, Strain/Indicator: TA100, Metabolic Activation: RAT, LIVER, S-9, AROCLOR 1254, Method: PREINCUBATION (THREEFOLD CELL DENSITY)) “inactive; negative”; under setting [7], “active; positive”; (Test System: CHINESE HAMSTER V-79, Strain/Indicator: V-79/OUABAIN, Metabolic Activation: NONE, Method: STANDARD PLATE) “active; positive”.

Take `CC(C)OC(=O)COc1ccc(Cl)cc1Cl`: the mutagenic call is “inactive; negative” under setting [2]; “inactive; negative” (Test System: AMES SALMONELLA TYPHIMURIUM, Strain/Indicator: TA98, Metabolic Activation: RAT LIVER S-9, AROCLOR 1254, 10%, Method: STANDARD PLATE); “inactive; negative” under setting [3]; “inactive; negative” (Test System: AMES SALMONELLA TYPHIMURIUM, Strain/Indicator: TA100, Metabolic Activation: RAT LIVER S-9, AROCLOR 1254, 10%, Method: STANDARD PLATE); “inactive; negative” under setting [4]; “inactive; negative” (Test System: AMES SALMONELLA TYPHIMURIUM, Strain/Indicator: TA1535, Metabolic Activation: RAT LIVER S-9, AROCLOR 1254, 10%, Method: STANDARD PLATE). The mutagenic call (Test System: AMES SALMONELLA TYPHIMURIUM, Strain/Indicator: TA1537, Metabolic Activation: NONE, Method: STANDARD PLATE) was “inactive; negative”; the mutagenic call (Test System: AMES SALMONELLA TYPHIMURIUM, Strain/Indicator: TA1537, Metabolic Activation: RAT LIVER S-9, AROCLOR 1254, 10%, Method: STANDARD PLATE) is “inactive; negative”; the mutagenic call under setting [5] is “inactive; negative”; the mutagenic call (Test System: AMES SALMONELLA TYPHIMURIUM, Strain/Indicator: TA1538, Metabolic Activation: RAT LIVER S-9, AROCLOR 1254, 10%, Method: STANDARD PLATE) was “inactive; negative”; the mutagenic call (Test System: UDS RAT HEPATOCYTES, Strain/Indicator: THYMIDINE INCORPORATION, Metabolic Activation: NONE, Method: AUTORADIOGRAPHY) was “inactive; negative”.

`CCCS`: the mutagenic call (Test System: MOUSE LYMPHOMA, Strain/Indicator: L5178Y (TK+/TK-), Metabolic Activation: RAT, LIVER, S-9, AROCLOR 1254, Method: SUSPENSION/PLATE) was “active; positive. reevaluation of results: equivocal” and the mutagenic call (Test System: Mouse lymphoma, Strain/Indicator: L5178Y (tk+/tk-), Metabolic Activation: None, Method: Suspension/plate) is “inactive; negative”.

As to `Oc1cc(Cl)c(Cl)c(Cl)c1O`, the mutagenic call under setting [7] was “inactive; negative”.

As for `C=C(C)C1Cc2c(cc(O)c3c(=O)c4ccccc4n(C)c23)O1` (stereo not drawn), the mutagenic call is “inactive; negative” under setting [2]; “active; positive” (Test System: AMES SALMONELLA TYPHIMURIUM, Strain/Indicator: TA98, Metabolic Activation: RAT, LIVER, S-9, 3-METHYLCHOLANTHRENE, Method: STANDARD PLATE); “active; positive” (Test System: AMES SALMONELLA TYPHIMURIUM, Strain/Indicator: TA98, Metabolic Activation: RAT, LIVER, S-9, PHENOBARBITAL, Method: STANDARD PLATE); “active; positive” (Test System: AMES SALMONELLA TYPHIMURIUM, Strain/Indicator: TA98, Metabolic Activation: RAT, LIVER, S-9, Method: STANDARD PLATE); “inactive; negative” under setting [3]; “active; positive” (Test System: AMES SALMONELLA TYPHIMURIUM, Strain/Indicator: TA100, Metabolic Activation: RAT, LIVER, S-9, 3-METHYLCHOLANTHRENE, Method: STANDARD PLATE). For the same compound, the mutagenic call was “active; positive” (Test System: AMES SALMONELLA TYPHIMURIUM, Strain/Indicator: TA100, Metabolic Activation: RAT, LIVER, S-9, PHENOBARBITAL, Method: STANDARD PLATE) and “active; positive” (Test System: AMES SALMONELLA TYPHIMURIUM, Strain/Indicator: TA100, Metabolic Activation: RAT, LIVER, S-9, Method: STANDARD PLATE).

`Cc1cccc2cc3ccc4ccccc4c3nc12`: the mutagenic call (Test System: AMES SALMONELLA TYPHIMURIUM, Strain/Indicator: TA97A, Metabolic Activation: NONE, Method: PREINCUBATION) is “inactive; negative”; the mutagenic call under setting [1] was “inactive; negative”; the mutagenic call under setting [6] is “inactive; negative”; the mutagenic call (Test System: AMES SALMONELLA TYPHIMURIUM, Strain/Indicator: TA102, Metabolic Activation: NONE, Method: PREINCUBATION) was “inactive; negative”.
